For assay [1], the system named is Septoria tritici (SEPTTR). As to the kind of experiment: 3-day curative test (3DC) vs. leaf blotch of wheat. It is filed as in vivo. Particulars: Zymoseptoria tritici, read-out: % DC Obs (percent disease control observed); for pest or weed control at 1.5 g/ha: application rate 1.5 g ai/Ha, SC formulation, track sprayer; for pest or weed control at 0.2 ppm: application rate 0.2 ppm. As for the experimental part: (§1) Evaluation of Curative and Protectant Activity of Fungicide Mixtures vs. Leaf Blotch of Wheat (Mycosphaerella graminicola; anamorph: Septoria tritici; Bayer code: SEPTTR)
(§2) Wheat plants (variety Yuma) were grown from seed in a greenhouse in plastic pots with a surface area of 27.5 square centimeters (cm2) containing 50% mineral soil/50% soil-less Metro mix, with 8-12 seedlings per pot. The plants were employed for testing when the first leaf was fully emerged, which typically took 7 to 8 days after planting. Test plants were inoculated with an aqueous spore suspension of Septoria tritici either 3-days prior to (3-day curative test; 3DC) or 1-day after fungicide treatments (1-day protectant test; 1DP). After inoculation the plants were kept at 100% relative humidity (one day in a dark dew chamber followed by two days in a lighted mist chamber) to permit spores to germinate and infect the leaf. The plants were then transferred to a greenhouse until disease symptoms were fully expressed.
(§3) For the mixture studies with compound of Formula IA: Treatments consisted of fungicides, including a compound of Formula IA, epoxiconazole, prothioconazole, azoxystrobin, pyraclostrobin, penthiopyrad, isopyrazam, bixafen, boscalid, prochloraz, chlorothalonil, and isobutyric acid (3S,6S,7R,8R)-8-benzyl-3-[(3-isobutyryloxymethoxy-4-methoxypyridine-2-carbonyl)-amino]-6-methyl-4,9-dioxo-[1,5]dioxonan-7-yl ester (compound A), applied either individually or as two-way mixtures with a compound of Formula IA. Technical grades of materials were dissolved in acetone to make stock solutions, which were then used to perform three-fold dilutions in acetone either for each individual fungicide component or for the two-way mixtures. Desired fungicide rates were obtained after mixing dilutions with nine volumes of water containing 110 parts per million (ppm) Triton X-100. Ten mL fungicide solutions were applied onto six pots of plants using an automated booth sprayer, which utilized two 6218-1/4 JAUPM spray nozzles operating at 20 pounds per square inch (psi) set at opposing angles to cover both leaf surfaces. All sprayed plants were allowed to air dry prior to further handling. Control plants were sprayed in the same manner with the solvent blank.
(§4) For the mixture studies with compound of Formula IB: Compound IB and the compound B or their two-way mixtures were diluted in three-fold series using suspension concentrate (SC) formulations in 0.1% Trycol 5941. Spray solutions were applied onto plants using a track sprayer with an application volume of 200 Liters/hectare (L/Ha).
(§5) When disease reached 80 to 100% on the control plants, infection levels were assessed on treated plants visually and scored on a scale of 0 to 100 percent. Percentage of disease control was then calculated using the ratio of disease on treated plants relative to control plants.
(§6) Colby's equation was used to determine the fungicidal effects expected from the mixtures. (See Colby, S. R. Calculation of the synergistic and antagonistic response of herbicide combinations. Weeds 1967, 15, 20-22.)
(§7) The following equation was used to calculate the expected activity of mixtures containing two active ingredients, A and B:
(§8) A=observed efficacy of active component A at the same concentration as used in the mixture;
(§9) B=observed efficacy of active component B at the same concentration as used in the mixture.

Assay [2] has as its system Septoria tritici (SEPTTR). Nature of the assay: 1-day protectant test (1DP) vs. leaf blotch of wheat. Format: in vivo. As to conditions: Zymoseptoria tritici, read-out: % DC Obs (percent disease control observed); for pest or weed control at 1.5 g/ha: application rate 1.5 g ai/Ha, SC formulation, track sprayer; for pest or weed control at 0.2 ppm: application rate 0.2 ppm. How it is done: as §1, §2, §3, §4, §5, §6, §7, §8, §9

Where [3] appears, read: 3DC SEPTTR, application rate 0.6 ppm.
Where [4] appears, read: 3DC SEPTTR, application rate 1.8 ppm.
The mark [5] stands for this setting: 3DC SEPTTR, application rate 5.6 ppm.
The mark [6] stands for this setting: 1DP SEPTTR, application rate 0.6 ppm.
Where [7] appears, read: 1DP SEPTTR, application rate 1.8 ppm.
Setting [8] is: 1DP SEPTTR, application rate 5.6 ppm.

`COc1ccnc(C(=O)N[C@H]2COC(=O)[C@H](Cc3ccccc3)[C@@H](OC(=O)C(C)C)[C@H](C)OC2=O)c1OCOC(=O)C(C)C` [A, Isobutyric acid (3S,6S,7R,8R)-8-benzyl-3-[(3-isobutyryloxymethoxy-4-methoxy-pyridine-2-carbonyl)-amino]-6-methyl-4,9-dioxo-[1,5]dioxonan-7-yl ester]: the pest or weed control at 0.45 ppm in assay [1] was 22%; in assay [2] it was 3%. Also, the pest or weed control at 1.35 ppm in assay [1] stood at 52%; in assay [2] it was 80%.

For the compound `CO/C=C(/C(=O)OC)c1ccccc1Oc1cc(Oc2ccccc2C#N)ncn1` [Azoxystrobin, methyl (αE)-2-[[6-(2-cyanophenoxy)-4-pyrimidinyl]oxy]-α-(methoxymethylene)benzeneacetate], the pest or weed control at 0.6 ppm is 10% in assay [1] (setting [3]) and 3% in assay [2] (setting [6]). In addition, the results for the pest or weed control at 1.8 ppm in assay [1] (setting [4]) and in assay [2] (setting [7]) were 14% and 3%, respectively. The pest or weed control at 5.6 ppm in assay [1] (setting [5]) came out at 20%; in assay [2] (setting [8]), 33%.

As for `Fc1cc(Oc2cc(C(F)(F)F)ccn2)ccc1CCNc1ncnc2c(F)ccc(F)c12` [B, (5,8-Difluoroquinazolin-4-yl)-{2-[2-fluoro-4-(4-trifluoromethylpyridin-2-yloxy)-phenyl]-ethyl}-amine], the values for the pest or weed control at 1.5 g/ha in assay [1] (3DC SEPTTR) and in assay [2] (1DP SEPTTR) were 41% and 36%, respectively.

On to `Cn1cc(C(=O)Nc2ccc(F)cc2-c2ccc(Cl)c(Cl)c2)c(C(F)F)n1` [Bixafen, N-(3′,4′-dichloro-5-fluoro[1,1′-biphenyl]-2-yl)-3-(difluoromethyl)-1-methyl-1H-pyrazole-4-carboxamide], for which the values for the pest or weed control at 0.2 ppm in assay [1] (3DC SEPTTR) and in assay [2] (1DP SEPTTR) were 6% and 3%, respectively. Further, the pest or weed control at 0.6 ppm in assay [1] (setting [3]) was 4%; in assay [2] (setting [6]), 7%. Also, the pest or weed control at 1.8 ppm in assay [1] (setting [4]) is 14%; in assay [2] (setting [7]), 12%.

`O=C(Nc1ccccc1-c1ccc(Cl)cc1)c1cccnc1Cl` [Boscalid, 2-chloro-N-(4′-chloro[1,1′-biphenyl]-2-yl)-3-pyridinecarboxamide]: the pest or weed control at 1.8 ppm in assay [1] (setting [4]) was 12%; in assay [2] (setting [7]), 5%. The pest or weed control at 5.6 ppm in assay [1] (setting [5]) turned out to be 34%; in assay [2] (setting [8]), 30%.

In the case of `N#Cc1c(Cl)c(Cl)c(Cl)c(C#N)c1Cl` [Chlorothalanil, 2,4,5,6-tetrachloro-1,3-benzenedicarbonitrile], the pest or weed control at 13.5 ppm was 4% in assay [1] (3DC SEPTTR, application rate 13.5 ppm) and 0% in assay [2] (1DP SEPTTR, application rate 13.5 ppm). Also, the pest or weed control at 42 ppm in assay [1] (3DC SEPTTR, application rate 42 ppm) stood at 4%; in assay [2] (1DP SEPTTR, application rate 42 ppm), 2%. The pest or weed control at 125 ppm in assay [1] (3DC SEPTTR, application rate 125 ppm) was 6%; in assay [2] (1DP SEPTTR, application rate 125 ppm), 0%.

As to `Cc1ccc(COc2ncc(F)c(N)n2)cc1` [Compound IA], the pest or weed control at 0.03 ppm was determined as 2% in assay [1] (3DC SEPTTR, application rate 0.03 ppm) and 2% in assay [2] (1DP SEPTTR, application rate 0.03 ppm). The pest or weed control at 0.1 ppm in assay [1] (3DC SEPTTR, application rate 0.1 ppm) was 4%; in assay [2] (1DP SEPTTR, application rate 0.1 ppm), 3%. The pest or weed control at 0.3 ppm in assay [1] (3DC SEPTTR, application rate 0.3 ppm) was 10%; in assay [2] (1DP SEPTTR, application rate 0.3 ppm), 0%. Also, the pest or weed control at 0.9 ppm in assay [1] (3DC SEPTTR, application rate 0.9 ppm) was 44%; in assay [2] (1DP SEPTTR, application rate 0.9 ppm), 22%. Besides, the pest or weed control at 2.8 ppm in assay [1] (3DC SEPTTR, application rate 2.8 ppm) amounted to 94%; in assay [2] (1DP SEPTTR, application rate 2.8 ppm), 85%. The pest or weed control at 8.3 ppm stood at 100% in assay [1] (3DC SEPTTR, application rate 8.3 ppm) and 98% in assay [2] (1DP SEPTTR, application rate 8.3 ppm).

Turning to `Nc1nc(OCc2ccc(F)cc2)ncc1F` [Compound IB], the pest or weed control at 1.5 g/ha stood at 74% in assay [1] (3DC SEPTTR) and 46% in assay [2] (1DP SEPTTR).

On to `Fc1ccc([C@]2(Cn3cncn3)O[C@H]2c2ccccc2Cl)cc1` [Epoxiconazole, re1-1-[[(2R,3S)-3-(2-chlorophenyl)-2-(4-fluorophenyl)oxiranyl]methyl]-1H-1,2,4-triazole], for which the pest or weed control at 0.125 ppm in assay [1] (3DC SEPTTR, application rate 0.125 ppm) worked out at 18%; in assay [2] (1DP SEPTTR, application rate 0.125 ppm), 2%. Besides, the pest or weed control at 0.375 ppm came to 46% in assay [1] (3DC SEPTTR, application rate 0.375 ppm) and 83% in assay [2] (1DP SEPTTR, application rate 0.375 ppm).

For the compound `CC(C)C1C2CCC1c1c(NC(=O)c3cn(C)nc3C(F)F)cccc12` (stereo not drawn) [Isopyrazam, 3-(difluoromethyl)-1-methyl-N-[1,2,3,4-tetrahydro-9-(1-methylethyl)-1,4-methanonaphthalen-5-yl]-1H-pyrazole-4-carboxamide], in assay [1], the pest or weed control at 0.6 ppm came to 10% and the pest or weed control at 1.8 ppm turned out to be 18%. In addition, in assay [2], the pest or weed control at 0.6 ppm was determined as 15% and the pest or weed control at 1.8 ppm stood at 23%.

As for `CC(C)CC(C)c1sccc1NC(=O)c1cn(C)nc1C(F)(F)F` (stereo not drawn) [Penthiopyrad, N-[2-(1,3-dimethylbutyl)-3-thienyl]-1-methyl-3-(trifluoromethyl)-1H-pyrazole-4-carboxamide], the pest or weed control at 0.2 ppm in assay [1] (3DC SEPTTR) amounted to 8%; in assay [2] (1DP SEPTTR), 2%. In addition, the figures for the pest or weed control at 0.6 ppm in assay [1] (setting [3]) and in assay [2] (setting [6]) were 4% and 10%, respectively. The pest or weed control at 1.8 ppm amounted to 4% in assay [1] (setting [4]) and 17% in assay [2] (setting [7]).

Turning to `CCCN(CCOc1c(Cl)cc(Cl)cc1Cl)C(=O)n1ccnc1` [Prochloraz, N-propyl-N-[2-(2,4,6-trichlorophenoxy)ethyl]-1H-imidazole-1-carboxamide], in assay [1], the pest or weed control at 1.8 ppm worked out at 24% and the pest or weed control at 5.6 ppm came out at 22%. In assay [2], the pest or weed control at 1.8 ppm was found to be 10% and the pest or weed control at 5.6 ppm was found to be 33%.
